Results reported in patent publication US20220281902A1, “MIT[…] IMPROVE METABOLIC SYNDROME DURING AGING” (The Board of Trustees of the Leland Stanford Junior …, priority 2019, published 2022).
Marks after values point to notes of the source that are not given here.

Assays:
visceral fat adipocytes = experiment: Histological analysis of white adipocyte size in visceral fat (toluidine blue O); type: in vivo, mouse
Method: Fluorescent microscopy. Adipose tissue was harvested and fixed in 4% paraformaldehyde (SigmaP6148). Adipocyte size was measured by staining for toluidine blue O in 5-20 μm-thick sections, paraffin embedded (Cell Signalling Technology, Tissue-Tek O.C.T.). adipocyte differentiations assessed by Oil Red 0 staining.

[1] = Serum biomarkers in treated mice; type: in vivo, C57BL/6 mice; conditions: 100 mg/Kg per day
From the text: The C57BL/6 mice were maintained on a standard purified mouse diet (PicoLab 5053 Rodent Diet 20; Lab Diets) until they reached 2 months of age when the treatments started. The CR animals were subjected to a lifelong restriction on PicoLab 5053 Rodent Diet 20; Lab Diets, starting at 12 weeks of age, with a daily food allotment of 60% of that eaten by the ad lib animals. Besides CR animals, the C57BL/6 groups in this study were fed the standard high fat diet (HFD; 60 or 40% fat). Body weights were measured weekly at the same time each week. Food and water intake were measured once every month for 3-6 consecutive days at the same time each month. Water consumption was measured for 2 weeks prior to the start of administration. Compound was generated and modified for better permeability in to mitochondria, evaluated by HPLC, was 96%-97%. The administration began at 8 weeks of age and continued for 16 months, until they became 18-month-old. The drug solution was prepared weekly in small batches by dissolving the compound into autoclaved water at the respective doses and filtering sterilely. Aliquots were collected from each batch and measured by HPLC to confirm stability of the compound. Water bottles and cages were changed twice weekly. Fed and fasted blood samples were collected monthly at the same time each month from tail and used for glucose, insulin, blood cell counts, lipid analysis using assay kits (Robio, China) and HbA1C assay kit (Crystal chem, USA) following the manufacturer protocol. IPGTTs and ITTs were conducted throughout morning and early afternoon after fasting for 16-18 hrs. and 4 hrs., respectively, once before start of treatment administration began and every 3 months thereafter. Rectal body temperature was measured monthly, as described previously. Whole blood samples, and histopathology were analyzed after 14 months of treatment. Tissue samples were collected after 10-14 months from mice, sacrificed and used for WB and qPCR microarray, and other analyses. All animal studies were approved by the Shanghai Jiao Tong University Animal Studies Committee and were in accordance with NIH guidelines. (Number of mice; SD=30, HFD=10, CR=20).

[2] = target: T1, cytochrome c oxidase (CcO) (Mus musculus, UniProt P00397); experiment: CcO activity in liver mitochondria of treated mice; type: in vivo
T1 construct: Mouse livers were extracted, and liver mitochondria were obtained using a mitochondria isolation kit; from tissue; host or cells: liver mitochondria of treated and control C57BL/6 mice, isolated with a Sigma-Aldrich mitochondria isolation kit; activity kit Sigma-Aldrich CYTOCOX1
Method: Measurement of CcO activity in liver mitochondria. Mouse livers were extracted, and liver mitochondria were obtained using a mitochondria isolation kit (Sigma-Aldrich). CcO activity in liver mitochondria was measured using a cytochrome c oxidase assay kit (Sigma-Aldrich, CYTOCOX1, USA.

[3] = Chronic 10-week treatment of T2DM mice; type: in vivo
Method: Next, in a biased investigation on impact of partial inhibition as a potential anti-diabetic treatment, two groups of type 2 diabetes mellitus (T2DM) and healthy control mice were prepared. Four weeks after the verification of T2DM, diabetic mice began to receive the exemplary subject compound. The chronic treatment phase lasted for 10 weeks.

[4] = test system: UCP1, UCP2, CIDEA, Cox8b transcripts; experiment: qPCR of thermoregulatory factors and beiging inducers; type: in vivo, mouse; conditions: brown fat, after 14 months of treatment
Method: (§1) Gene expression & RT qPCR Analyses. Total RNA was isolated using a commercially available kit (OMEGA bio-tek, R6812-02) according to the manufacturer's instructions. cDNA was generated using the PrimeScript RT reagent kit (TAKARA, RR047A). Gene expression were determined by qPCR as described in the product manual. The analysis was evaluated by Bio-Rad Real-Time System (CFX Connect™).
(§2) RNAs from 10 mice (5 treated and 5 Ctrl.) VF fat or livers were isolated by using omega Bio-Tek reagents, and cDNA was transcribed by (TAKARA). qPCR was then performed by using iQ SYBR Green mastermix bioscience on a CFX96 Real-Time System/C1000 Thermal Cycler (Bio-Rad).

AMPK, FOXO1, SIRT3 = experiment: qPCR and immunoblotting of hepatic glucose metabolism and longevity markers; type: in vivo, mouse
Method: Immunoblotting analyses. Western blot analyses carried out in mouse livers, heart and adipose tissues collected from aged mice after treatments. Proteins (40 μg) were separated by electrophoresis on a sodium dodecyl sulfate (SDS) 4-20% polyacrylamide gel under reducing conditions. Membranes (Amersham Hybond PVDF, Germany) were probed overnight at 4° C. using Total OX-OPHOS Rodent cocktail (ab110413, USA), Complex IV, AMPK γ1, PGC-1α and Pparγ, FOXO1, TNF-α, IL-6 (USA, abCAM) and then incubated with polyclonal Goat anti-mouse IgG H&R (1:2000, ab6789, USA) in blocking buffer for 2 h at room temperature. To assure equal loading and/or to normalize protein content, the membrane blots were incubated with mouse anti-β-actin monoclonal antibody (mAbcam8227). Proteins were visualized using a chemiluminescence ECL Western blotting detection reagent (Bio-rad, USA). Quantification of protein was performed by chemiluminescence blot scanning (Quantity One™ version 4.6.3. Bio Rad).
as §1, §2

[5] = test system: TNF-α, IL-6, CRP, leptin receptor, CD68 transcripts; experiment: qPCR of inflammatory factors, macrophage pan marker and leptin receptor; type: in vivo, mouse
Method: as §1, §2

[6] = test system: reactive oxygen species (ROS); experiment: Serum ROS generation evaluation; type: in vivo, mouse; conditions: blood plasma, after 14 months of treatment
[7] = DEXA body composition analysis and fat depot analysis; type: in vivo; conditions: 14 month old mice
[8] = liver, 14 months treatment (FIG. 6A)
[9] = visceral fat, 14 months old mice

Structure (SMILES): Cc1ncsc1CCOC(=O)C[P+](c1ccccc1)(c1ccccc1)c1ccccc1.[Br-] [HG1a-1, (2-(2-(4-Methylthiazol-5-yl)Ethoxy)-2-Oxoethyl) Triphenylphosphonium Bromide]
- visceral fat adipocyte size and cell perimeter (visceral fat adipocytes; 5 month old treated mice): minor changes
- adipocyte shrinkage in size and perimeter compared to control (visceral fat adipocytes; 12 month old treated mice): 3 fold
- glycated hemoglobin (Hb1Ac) levels vs control and calorie restriction ([1]; 12 months continuous treatment): lower
- Cholesterol ([1]; serum, treated mice): 6.3 ± 0.9 mM/L
- Glucose-fasted ([1]; serum, treated mice): 4.4 ± 0.2 mM
- Glucose-fed ([1]; serum, treated mice): 6.5 ± 0.3 mM
- Insulin ([1]; serum, treated mice): 2.34 ± 0.5 µg/L
- Total protein ([1]; serum, treated mice): 5.89 ± 0.32 g dl^□−1
- Triglycerides ([1]; serum, treated mice): 1.00 ± 1*^ mM/L
- % HbA1c ([1]; treated mice): 5.5 ± 0.5 %
- CcO inhibition activity ([2]; 2 month old mice): 67%
- CcO function higher than controls of the same model ([2]; 12-month-long treated mice): about 20%
- CcO function vs same age subjects receiving a single dose ([2]; 12-month-long treated mice): one-fold greater
- CcO inhibition activity ([2]; 14 month old mice): 65%
- drop of blood glucose level ([3]; after one week (23 mM at time 0)): 20%
- drop of blood glucose level ([3]; by week 3, reached healthy controls): 39%
- insulin elevations ([3]; week 3): negligible
- CIDEA expression amplified [4]: one-fold
- Cox8b expression amplified [4]: 7 fold
- UCP2 expression amplified [4]: > one-fold
- UPC1 expression increase [4]: 20 fold
- APMK amplified (AMPK, FOXO1, SIRT3; [8]): 5 fold
- FOXO1 amplified (AMPK, FOXO1, SIRT3; [8]): 3 fold
- SIRT3 amplified (AMPK, FOXO1, SIRT3; [8]): one-fold
- enhanced deacetylation of FoxO-1 (AMPK, FOXO1, SIRT3; livers of treated mice): 3 fold
- relative levels of phosphorylated AMPK increased (AMPK, FOXO1, SIRT3; livers of treated mice): 5 fold
- SIRT-3 level (AMPK, FOXO1, SIRT3; treated group (FIG. 6A)): marked upgrade
- leptin receptor transcript abundance increase ([5]; mouse livers): 2 fold
- decline in abundance of CD68 ([5]; visceral fat): 5 fold
- CRP transcript [5, 9]: trivial changes
- IL-6 transcript [5, 9]: declined markedly
- TNF-α transcript [5, 9]: declined markedly
- drop of ROS production [6]: ~4 fold
- gonadal adipose mass [7]: valid reduction
- sub-scapular brown adipose mass [7]: minor effect
- body fat mass ([7]; DEXA): recognizable decrease
- lean mass ([7]; DEXA): trivial changes
